This note sets out measurements from patent US10479784B2, “Substituted pyrazin-2-amines as inhibitors of ATR kinase” (Vertex Pharmaceuticals Incorporated, priority 2008, dated 2019).

One may read the Ki as a dissociation constant, usually derived from enzyme kinetics or from competition with a known ligand.

The experiment deals with full-length ATR (Homo sapiens (Human), UniProt Q13535). The experiment can be described thus: ATR Inhibition Assay (radioactive-phosphate incorporation). In kind it is biochemical. The conditions noted are these: read-out: ATR Ki. Summed up:
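Full-length human ATR (5 nM) was assayed at 25 °C in 50 mM Tris/HCl pH 7.5, 10 mM MgCl2, 1 mM DTT, with 10 μM [γ-33P]ATP and 800 μM peptide, after 10-min compound preincubation. Reactions were stopped after 24 h, captured on phosphocellulose and counted; Ki(app) came from non-linear regression of initial rates.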

full-length ATR, sequence (Q13535 whole entry): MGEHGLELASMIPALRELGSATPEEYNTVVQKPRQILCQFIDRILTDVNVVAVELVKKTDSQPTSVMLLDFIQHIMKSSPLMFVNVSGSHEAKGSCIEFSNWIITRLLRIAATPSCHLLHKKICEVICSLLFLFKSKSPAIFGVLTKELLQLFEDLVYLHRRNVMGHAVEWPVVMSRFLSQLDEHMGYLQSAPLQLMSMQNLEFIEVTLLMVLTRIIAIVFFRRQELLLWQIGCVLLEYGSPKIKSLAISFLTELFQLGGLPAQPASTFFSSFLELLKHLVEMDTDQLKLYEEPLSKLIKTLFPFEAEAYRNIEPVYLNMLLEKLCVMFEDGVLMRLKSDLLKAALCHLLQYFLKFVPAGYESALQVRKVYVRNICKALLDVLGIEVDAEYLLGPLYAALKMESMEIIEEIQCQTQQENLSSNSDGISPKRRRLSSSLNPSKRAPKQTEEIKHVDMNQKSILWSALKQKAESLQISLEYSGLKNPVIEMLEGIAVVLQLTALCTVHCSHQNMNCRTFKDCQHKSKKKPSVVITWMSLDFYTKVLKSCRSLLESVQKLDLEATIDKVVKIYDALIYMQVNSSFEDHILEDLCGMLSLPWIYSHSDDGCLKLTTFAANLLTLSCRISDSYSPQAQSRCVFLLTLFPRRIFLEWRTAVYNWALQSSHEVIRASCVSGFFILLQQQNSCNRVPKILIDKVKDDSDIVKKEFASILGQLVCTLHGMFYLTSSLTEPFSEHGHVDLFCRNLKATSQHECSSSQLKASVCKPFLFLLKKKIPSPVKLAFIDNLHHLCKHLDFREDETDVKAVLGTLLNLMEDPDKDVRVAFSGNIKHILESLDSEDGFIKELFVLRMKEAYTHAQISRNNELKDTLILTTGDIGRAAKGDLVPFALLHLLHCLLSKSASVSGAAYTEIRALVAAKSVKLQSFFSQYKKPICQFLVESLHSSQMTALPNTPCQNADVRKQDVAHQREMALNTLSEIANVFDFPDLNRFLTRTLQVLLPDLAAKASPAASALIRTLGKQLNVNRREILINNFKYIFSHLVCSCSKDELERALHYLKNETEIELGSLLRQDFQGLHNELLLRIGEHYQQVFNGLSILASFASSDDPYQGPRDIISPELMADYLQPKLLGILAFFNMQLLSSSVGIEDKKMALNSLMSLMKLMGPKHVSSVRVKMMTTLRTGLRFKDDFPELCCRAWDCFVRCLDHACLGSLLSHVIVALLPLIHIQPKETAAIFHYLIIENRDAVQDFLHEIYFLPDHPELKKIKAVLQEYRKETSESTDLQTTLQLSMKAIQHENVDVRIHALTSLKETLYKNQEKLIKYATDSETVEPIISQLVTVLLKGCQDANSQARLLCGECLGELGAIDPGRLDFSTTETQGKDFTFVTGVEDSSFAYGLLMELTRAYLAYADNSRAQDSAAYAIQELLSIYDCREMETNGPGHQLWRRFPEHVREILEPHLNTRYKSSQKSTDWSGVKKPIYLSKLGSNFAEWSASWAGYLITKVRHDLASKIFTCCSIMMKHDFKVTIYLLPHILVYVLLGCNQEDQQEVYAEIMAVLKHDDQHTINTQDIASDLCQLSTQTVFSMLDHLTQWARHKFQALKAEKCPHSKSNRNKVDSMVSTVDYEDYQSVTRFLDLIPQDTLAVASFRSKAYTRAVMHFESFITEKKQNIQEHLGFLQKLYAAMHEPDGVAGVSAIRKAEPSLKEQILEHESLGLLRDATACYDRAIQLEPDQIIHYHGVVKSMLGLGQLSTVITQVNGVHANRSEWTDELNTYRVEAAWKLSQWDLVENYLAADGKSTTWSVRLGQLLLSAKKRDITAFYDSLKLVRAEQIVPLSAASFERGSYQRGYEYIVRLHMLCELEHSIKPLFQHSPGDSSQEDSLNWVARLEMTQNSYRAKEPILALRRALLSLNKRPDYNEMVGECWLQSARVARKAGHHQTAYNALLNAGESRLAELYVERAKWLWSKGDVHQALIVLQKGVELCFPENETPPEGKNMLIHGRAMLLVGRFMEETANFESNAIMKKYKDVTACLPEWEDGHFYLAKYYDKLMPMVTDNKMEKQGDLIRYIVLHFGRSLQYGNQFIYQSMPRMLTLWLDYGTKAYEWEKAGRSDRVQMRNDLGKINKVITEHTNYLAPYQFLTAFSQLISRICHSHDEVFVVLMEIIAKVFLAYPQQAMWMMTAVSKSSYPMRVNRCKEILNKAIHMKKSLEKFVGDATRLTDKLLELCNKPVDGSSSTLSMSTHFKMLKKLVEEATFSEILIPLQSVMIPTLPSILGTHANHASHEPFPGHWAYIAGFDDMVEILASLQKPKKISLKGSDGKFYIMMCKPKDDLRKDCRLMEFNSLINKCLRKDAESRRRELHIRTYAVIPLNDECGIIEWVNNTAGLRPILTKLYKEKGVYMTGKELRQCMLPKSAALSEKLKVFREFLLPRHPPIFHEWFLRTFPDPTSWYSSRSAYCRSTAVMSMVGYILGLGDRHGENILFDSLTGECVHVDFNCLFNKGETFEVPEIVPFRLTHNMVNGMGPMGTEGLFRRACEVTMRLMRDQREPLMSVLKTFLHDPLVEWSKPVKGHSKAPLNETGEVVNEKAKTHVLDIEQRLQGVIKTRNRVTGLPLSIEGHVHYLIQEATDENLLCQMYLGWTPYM

As to `CNCc1ccc(-c2cc(-c3nc(-c4ccc(S(=O)(=O)C5CCOC5)cc4)cnc3N)on2)c(F)c1` (centres unmarked) [IIA-16, 3-[3-[2-fluoro-4-(methylaminomethyl)phenyl]isoxazol-5-yl]-5-(4-tetrahydrofuran-3-ylsulfonylphenyl)pyrazin-2-amine], the Ki was not above 10 nM. With `CN(C)C(=O)c1ccc(-c2cnc(N)c(-c3nnc(C4CC4)o3)n2)cc1` [IA-101, 4-[5-amino-6-(5-cyclopropyl-1,3,4-oxadiazol-2-yl)pyrazin-2-yl]-N,N-dimethyl-benzamide], the Ki lay in the range of 100 to 5000 nM.

As to `Cc1ccc2nc(-c3nc(-c4ccc(C(=O)N5CCNCC5)cc4)cnc3N)[nH]c2c1` [III-3, (4-(5-amino-6-(6-methyl-1H-benzo[d]imidazol-2-yl)pyrazin-2-yl)phenyl)(piperazin-1-yl)methanone], the Ki fell in the range of 10 to 100 nM. As for `Cc1cccc2nc(-c3nc(-c4ccc(S(C)(=O)=O)cc4)cnc3N)[nH]c12` [Compound I-119, 3-(7-methyl-1H-benzo[d]imidazol-2-yl)-5-(4-(methylsulfonyl)phenyl) pyrazin-2-amine], the figure is 10 to 100 nM; as for `CNCc1ccc(-c2nnc(-c3nc(-c4ccc(S(=O)(=O)C(C)C)c(F)c4)cnc3N)o2)cc1` [IA-314, 5-(3-fluoro-4-isopropylsulfonyl-phenyl)-3-[5-[4-(methylaminomethyl)phenyl]-1,3,4-oxadiazol-2-yl]pyrazin-2-amine], not above 10 nM.

With `CCC1CN(C(=O)c2ccc(-c3cnc(N)c(-c4nnc(-c5ccccc5)o4)n3)cc2)CCN1` (centres unmarked) [IA-18], the Ki is not above 10 nM.

For the compound `Nc1ncc(-c2cccc(C(=O)NCCN3CCCC3)c2)nc1C(=O)Nc1ccccc1` [Compound I-54, 3-amino-N-phenyl-6-(3-(2-(pyrrolidin-1-yl)ethylcarbamoyl)phenyl)pyrazine-2-carboxamide], the Ki fell in the range of 100 to 5000 nM.

Turning to `Nc1ncc(-c2ccc(C(=O)N3CCCNCC3)nc2)nc1-c1nnc(-c2ccccc2)o1` [IA-47], the Ki was not above 10 nM. The same measure for `CC(C)S(=O)(=O)c1ccc(-c2cnc(N)c(-c3nnc(N4CCC(N)C4)o3)n2)cc1` (centres unmarked) [IA-188, 3-[5-(3-aminopyrrolidin-1-yl)-1,3,4-oxadiazol-2-yl]-5-(4-isopropylsulfonylphenyl)pyrazin-2-amine]: 100 to 5000 nM; for `CC(C)S(=O)(=O)c1ccc(-c2cnc(N)c(-c3nnc(NC(=O)[C@@H]4CCCCN4)o3)n2)cc1` [IA-211, (2S)—N-[5-[3-amino-6-(4-isopropylsulfonylphenyl)pyrazin-2-yl]-1,3,4-oxadiazol-2-yl]piperidine-2-carboxamide]: 100 to 5000 nM. In the case of `CC(C)S(=O)(=O)c1ccc(-c2cnc(N)c(-c3nnc(-c4ccc(CN[C@@H](C)CO)cc4F)o3)n2)cc1` [IA-335, (S)-2-(4-(5-(3-amino-6-(4-(isopropylsulfonyl)phenyl)pyrazin-2-yl)-1,3,4-oxadiazol-2-yl)-3-fluorobenzylamino)propan-1-ol], the Ki is not above 10 nM. As for `COC1CN(C(=O)c2ccc(-c3cnc(N)c(C(=O)Nc4ccccc4)n3)cc2)C1` [Compound I-44, 3-amino-6-(4-(3-methoxyazetidine-1-carbonyl)phenyl)-N-phenylpyrazine-2-carboxamide], the figure is 10 to 100 nM. Turning to `Nc1ncc(-c2ccc(C(=O)N3CCCNCC3)cc2)nc1-c1nnc(-c2ccccc2)o1` [IA-1], the inhibition constant Ki is not above 10 nM. The same measure for `Nc1ncc(-c2ccc(C(=O)NC3CC3)cc2)nc1C(=O)Nc1ccccc1` [Compound I-51, 3-amino-6-(4-(cyclopropylcarbamoyl)phenyl)-N-phenylpyrazine-2-carboxamide]: 10 to 100 nM; for `CNCc1ccc(-c2nnc(-c3nc(-c4ccc(S(=O)(=O)C5CCOC5)cc4)cnc3N)o2)cc1` (centres unmarked) [IA-302, 3-[5-[4-(methylaminomethyl)phenyl]-1,3,4-oxadiazol-2-yl]-5-(4-tetrahydrofuran-3-ylsulfonylphenyl)pyrazin-2-amine]: not above 10 nM; for `CN(C)CCN(C)C(=O)c1ccc(-c2cnc(N)c(C(=O)Nc3ccccc3)n2)cc1` [Compound I-68, 3-amino-6-(4-((2-(dimethylamino)ethyl)(methyl)carbamoyl)phenyl)-N-phenylpyrazine-2-carboxamide]: 10 to 100 nM. Consider `CC(=O)Nc1cccc(NC(=O)c2nc(-c3cccnc3)cnc2N)c1` [Compound I-95, 3-amino-N-(3-ethanamidophenyl)-6-(pyridin-3-yl)pyrazine-2-carboxamide], for which the Ki lay within 100 to 5000 nM. As for `CN(C)C(=O)c1ccc(-c2cnc(N)c(-c3nnc(-c4ccncc4)o3)n2)cc1` [IA-67], the Ki lay in the range of 10 to 100 nM. As for `CC(C)S(=O)(=O)c1ccc(-c2cnc(N)c(-c3nnc(-c4ccc(C5CCCN5)s4)o3)n2)cc1` (centres unmarked) [IA-147, 5-(4-isopropylsulfonylphenyl)-3-[5-(5-pyrrolidin-2-yl-2-thienyl)-1,3,4-oxadiazol-2-yl]pyrazin-2-amine], the figure is not above 10 nM.

As for `CN(C)C1CCN(C(=O)c2ccc(-c3cnc(N)c(-c4nnc(-c5ccccc5)o4)n3)c(C(F)(F)F)c2)CC1` [IA-22], the Ki was 10 to 100 nM. Consider `CNCc1ccc(-c2nnc(-c3nc(-c4ccc(S(=O)(=O)C(C)C)cc4)cnc3N)o2)s1` [IA-140, 5-(4-isopropylsulfonylphenyl)-3-[5-[5-(methylaminomethyl)-2-thienyl]-1,3,4-oxadiazol-2-yl]pyrazin-2-amine], for which the Ki is not above 10 nM. `CS(=O)(=O)c1ccc(-c2cnc(N)c(C(=O)Nc3n[nH]c4ccccc34)n2)cc1` [Compound V-18]: the Ki was 100 to 5000 nM. As for `CCNCc1ccc(-c2nnc(-c3nc(-c4ccc(S(=O)(=O)C(C)C)cc4)cnc3N)o2)cc1` [IA-122, 3-[5-[4-(ethylaminomethyl)phenyl]-1,3,4-oxadiazol-2-yl]-5-(4-isopropylsulfonylphenyl)pyrazin-2-amine], the figure is not above 10 nM; as for `COc1ccc(NC(C)=O)cc1NC(=O)c1nc(-c2cccnc2)cnc1N` [Compound I-100, 3-amino-N-(5-ethanamido-2-methoxyphenyl)-6-(pyridin-3-yl)pyrazine-2-carboxamide], 100 to 5000 nM; as for `Nc1ncc(-c2ccncc2)nc1C(=O)Nc1ccccc1` [Compound I-33, 3-amino-N-phenyl-6-(pyridin-4-yl)pyrazine-2-carboxamide], 100 to 5000 nM. Take `NCCSc1ccccc1-c1cnc(N)c(-c2nnc(-c3ccccc3)o2)n1` [IA-224, 5-(2-(2-aminoethylthio)phenyl)-3-(5-phenyl-1,3,4-oxadiazol-2-yl)pyrazin-2-amine]: the inhibitory constant (Ki) was in the range of 100 to 5000 nM. As for `CN(C)C(=O)c1ccc(-c2cnc(N)c(-c3nnc(-c4ccccc4OCCNC(=O)OC(C)(C)C)o3)n2)cc1` [IA-175, tert-butyl N-[2-[2-[5-[3-amino-6-[4-(dimethylcarbamoyl)phenyl]pyrazin-2-yl]-1,3,4-oxadiazol-2-yl]phenoxy]ethyl]carbamate], the figure is not above 10 nM. Turning to `Nc1ncc(-c2ccc(C(=O)N3CCC3)cc2)nc1C(=O)Nc1ccccc1` [Compound I-72, 3-amino-6-(4-(azetidine-1-carbonyl)phenyl)-N-phenylpyrazine-2-carboxamide], the Ki lay in the range of 10 to 100 nM. With `CN(C)CCNc1nccc(-c2cnc(N)c(-c3nnc(-c4ccccc4)o3)n2)c1C#N` [IA-209, 4-[5-amino-6-(5-phenyl-1,3,4-oxadiazol-2-yl)pyrazin-2-yl]-2-(2-dimethylaminoethylamino)pyridine-3-carbonitrile], the Ki is 10 to 100 nM. As to `CC(C)S(=O)(=O)c1ccc(-c2cnc(N)c(-c3nnc(-c4ccc(CNCCF)cc4)o3)n2)cc1` [IA-346, 3-[5-[4-[(2-fluoroethylamino)methyl]phenyl]-1,3,4-oxadiazol-2-yl]-5-(4-isopropylsulfonylphenyl)pyrazin-2-amine], the Ki is not above 10 nM. As for `Nc1ncc(-c2ccc(C(=O)O)cc2)nc1C(=O)Nc1ccccc1` [Compound I-7, 4-(5-amino-6-(phenylcarbamoyl)pyrazin-2-yl)benzoic acid], the Ki was in the range of 10 to 100 nM.

On to `CNCc1ccc(-c2nnc(-c3nc(-c4ccc(S(=O)(=O)C5CCOC5)cc4)cnc3N)o2)c(F)c1` (centres unmarked) [IA-347, 3-[5-[2-fluoro-4-(methylaminomethyl)phenyl]-1,3,4-oxadiazol-2-yl]-5-(4-tetrahydrofuran-3-ylsulfonylphenyl)pyrazin-2-amine], for which the Ki is not above 10 nM.

Turning to `Cc1ccc2nc(-c3nc(-c4ccc(C(=O)N5CCC(N(C)C)CC5)cc4)cnc3N)[nH]c2c1` [III-2, (4-(5-amino-6-(6-methyl-1H-benzo[d]imidazol-2-yl)pyrazin-2-yl)phenyl)(4-(dimethylamino)piperidin-1-yl)methanone], the Ki is 10 to 100 nM. As for `Nc1ncc(-c2cccnc2)nc1-c1nnc(-c2cccs2)[nH]1` [Compound I-142, 5-(pyridin-3-yl)-3-(5-(thiophen-2-yl)-4H-1,2,4-triazol-3-yl)pyrazin-2-amine], the Ki lay in the range of 10 to 100 nM. As for `CC(C)S(=O)(=O)c1ccc(-c2cnc(N)c(-c3nnc(C(=O)NC4CCNC4)o3)n2)cc1` (centres unmarked) [IA-114, 5-[3-amino-6-(4-isopropylsulfonylphenyl)pyrazin-2-yl]-N-pyrrolidin-3-yl-1,3,4-oxadiazole-2-carboxamide], the figure is 100 to 5000 nM. Consider `CC(C)S(=O)(=O)c1ccc(-c2cnc(N)c(-c3nnc(-c4ccc(CNCCO)cc4)o3)n2)cc1` [IA-178, 2-(4-(5-(3-amino-6-(4-(isopropylsulfonyl)phenyl)pyrazin-2-yl)-1,3,4-oxadiazol-2-yl)benzylamino)ethanol], for which the Ki is not above 10 nM. For `CC(C)S(=O)(=O)c1ccc(-c2cnc(N)c(-c3nnc(-c4ccc([C@H](C)N)cc4)o3)n2)cc1` [IA-228, 3-[5-[4-[(1S)-1-aminoethyl]phenyl]-1,3,4-oxadiazol-2-yl]-5-(4-isopropylsulfonylphenyl)pyrazin-2-amine], the Ki is not above 10 nM. The same measure for `Nc1ncc(-c2ccc(C(=O)NCCN3CCCC3)cc2)nc1-c1nc2ccccc2[nH]1` [III-6, 4-(5-amino-6-(1H-benzo[d]imidazol-2-yl)pyrazin-2-yl)-N-(2-(pyrrolidin-1-yl)ethyl)benzamide]: 10 to 100 nM.
